Assay results taken from US9108983B2, “Pyrrole compounds, a process for their preparation and pharmaceutical compositions containing them” (LES LABORATOIRES SERVIER, priority 2013, dated 2015).
Where a name gives a salt, the structure may show the parent alone. Read-outs that look alike come from different tables or passages of the source.

Key:
Bcl-2 protein = Bcl-2 protein (histag-Bcl-2, UniProtKB P10415) (Homo sapiens (Human), UniProt P10415); assay: Inhibition of Bcl-2 by the fluorescence polarisation technique; format: binding; details: incubation for 2 hours, read-out: IC50 (nM) Bcl-2 FP
How it was run: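 Fluorescence polarisation competition: His-tagged Bcl-2 (2.50×10^−8 M final) with fluorescein-labelled peptide (1.00×10^−8 M final) in 10 mM Hepes, 150 mM NaCl, 0.05% Tween20, pH 7.4. Increasing compound concentrations were added. Polarisation was read after 2 h incubation.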

[1] = tested on: RS4;11 leukaemia tumour line; assay: In vitro cytotoxicity (Microculture Tetrazolium Assay); format: cell-based; details: RS4;11 cells, exposed for 48 hours, cell viability, read-out: IC50 (nM) MTT RS4;11
Protocol: The cytotoxicity studies were carried out on the RS4;11 leukaemia tumour line.
The cells are distributed onto microplates and exposed to the test compounds for 48 hours.
The cell viability is then quantified by a colorimetric assay, the Microculture Tetrazolium Assay (Cancer Res., 1987, 47, 939-942).

Sequence of Bcl-2 protein (P10415 whole entry): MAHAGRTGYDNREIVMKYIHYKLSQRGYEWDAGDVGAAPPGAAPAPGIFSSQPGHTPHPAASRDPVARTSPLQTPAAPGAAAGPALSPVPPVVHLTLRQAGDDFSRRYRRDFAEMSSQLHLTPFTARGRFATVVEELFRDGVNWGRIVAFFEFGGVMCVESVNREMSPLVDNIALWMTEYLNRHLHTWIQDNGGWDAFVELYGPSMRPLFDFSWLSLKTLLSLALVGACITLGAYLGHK

| IC50 (Bcl-2 protein) | SMILES | IC50 ([1]; Homo sapiens, RS4-11, 48 h) | IC50 (Bcl-2 protein; hydrochloride) | IC50 ([1]; hydrochloride) |
| --- | --- | --- | --- | --- |
| 5.5 nM | COc1cnc(N(C(=O)c2cc(-c3cc(Cl)ccc3C(=O)N3Cc4ccccc4C[C@H]3CN3CCOCC3)n(C)c2C)c2ccc(O)cc2)cn1 [Example 444, 5-(5-Chloro-2-{[(3S)-3-(morpholin-4-ylmethyl)-3,4-dihydroisoquinolin-2(1H)-yl]carbonyl}phenyl)-N-(4-hydroxyphenyl)-N-(5-methoxypyrazin-2-yl)-1,2-dimethyl-1H-pyrrole-3-carboxamide hydrochloride] | 181 nM | – | – |
| – | Cc1c(C(=O)N(c2ccc(O)cc2)c2cnc3c(c2)CCN3C)cc(-c2cc(Cl)ccc2C(=O)N2Cc3ccccc3C[C@H]2CN2CCOCC2)n1C [Example 445, 5-(5-Chloro-2-{[(3S)-3-(morpholin-4-ylmethyl)-3,4-dihydroisoquinolin-2(1H)-yl]carbonyl}phenyl)-N-(4-hydroxyphenyl)-1,2-dimethyl-N-[1-(trideuteriomethyl)-2,3-dihydro-H-pyrrolo[2,3-b]pyridin-5-yl]-1H-pyrrole-3-carboxamide hydrochloride] | – | 2 nM | 19 nM |
| 7.8 nM | Cc1c(C(=O)N(c2ccc(O)cc2)c2cnc(F)cn2)cc(-c2cc(Cl)ccc2C(=O)N2Cc3ccccc3C[C@H]2CN2CCOCC2)n1C [Example 446, 5-(5-Chloro-2-{[(3S)-3-(morpholin-4-ylmethyl)-3,4-dihydroisoquinolin-2(1H)-yl]carbonyl}phenyl)-N-(5-fluoropyrazin-2-yl)-N-(4-hydroxyphenyl)-1,2-dimethyl-1H-pyrrole-3-carboxamide hydrochloride] | 249 nM | – | – |
| 20 nM | Cc1c(C(=O)N(c2ccc(O)cc2)c2cnn(C)c2)cc(-c2ccc(F)cc2C(=O)N2Cc3ccccc3C[C@H]2CN2CCOCC2)n1C [Example 447, 5-(4-Fluoro-2-{[(3S)-3-(morpholin-4-ylmethyl)-3,4-dihydroisoquinolin-2(1H)-yl]carbonyl}phenyl)-N-(4-hydroxyphenyl)-1,2-dimethyl-N-(1-methyl-1H-pyrazol-4-yl)-1H-pyrrole-3-carboxamide hydrochloride] | > 600 nM | – | – |
| 2.4 nM | Cl.[2H]C([2H])([2H])n1cc(N(C(=O)c2cc(-c3cc(Cl)ccc3C(=O)N3Cc4ccccc4C[C@H]3CN3CCOCC3)n(C)c2C)c2ccc(O)cc2)cc1C#N [Example 448, 5-(5-Chloro-2-{[(3S)-3-(morpholin-4-ylmethyl)-3,4-dihydroisoquinolin-2(1H)-yl]carbonyl}phenyl)-N-[5-cyano-1-(trideuteriomethyl)-1H-pyrrol-3-yl]-N-(4-hydroxyphenyl)-1,2-dimethyl-1H-pyrrole-3-carboxamide hydrochloride] | 12.1 nM | – | – |
| 2.7 nM | Cc1c(C(=O)N(c2ccc(O)cc2)c2cc(C#N)nn2C)cc(-c2cc(Cl)ccc2C(=O)N2Cc3ccccc3C[C@H]2CN2CCOCC2)n1C [Example 450, 5-(5-Chloro-2-{[(3S)-3-(morpholin-4-ylmethyl)-3,4-dihydroisoquinolin-2(1H)-yl]carbonyl}phenyl)-N-(3-cyano-1-methyl-1H-pyrazol-5-yl)-N-(4-hydroxyphenyl)-1,2-dimethyl-1H-pyrrole-3-carboxamide hydrochloride] | 53.2 nM | – | – |
| 2.9 nM | Cc1c(C(=O)N(c2ccc(O)cc2)c2cnc3c(cnn3C)c2)cc(-c2cc(F)ccc2C(=O)N2Cc3ccccc3C[C@H]2CN2CCOCC2)n1C [Example 451, 5-(5-Fluoro-2-{[(3S)-3-(morpholin-4-ylmethyl)-3,4-dihydroisoquinolin-2(1H)-yl]carbonyl}phenyl)-N-(4-hydroxyphenyl)-1,2-dimethyl-N-(1-methyl-1H-pyrazolo[3,4-b]pyridin-5-yl)-1H-pyrrole-3-carboxamide hydrochloride] | 102 nM | – | – |
| 8.3 nM | Cc1nn(C)cc1N(C(=O)c1cc(-c2cc(F)ccc2C(=O)N2Cc3ccccc3C[C@H]2CN2CCOCC2)n(C)c1C)c1ccc(O)cc1 [Example 452, N-(1,3-Dimethyl-1H-pyrazol-4-yl)-5-(5-fluoro-2-{[(3S)-3-(morpholin-4-ylmethyl)-3,4-dihydroisoquinolin-2(1H)-yl]carbonyl}phenyl)-N-(4-hydroxyphenyl)-1,2-dimethyl-1H-pyrrole-3-carboxamide hydrochloride] | 112 nM | – | – |
| 6.9 nM | Cc1c(N(C(=O)c2cc(-c3cc(F)ccc3C(=O)N3Cc4ccccc4C[C@H]3CN3CCOCC3)n(C)c2C)c2ccc(O)cc2)cnn1C [Example 453, N-(1,5-Dimethyl-1H-pyrazol-4-yl)-5-(5-fluoro-2-{[(3S)-3-(morpholin-4-ylmethyl)-3,4-dihydroisoquinolin-2(1H)-yl]carbonyl}phenyl)-N-(4-hydroxyphenyl)-1,2-dimethyl-1H-pyrrole-3-carboxamide hydrochloride] | 99.9 nM | – | – |
| 6.5 nM | Cc1c(N(C(=O)c2cc(-c3cc(Cl)ccc3C(=O)N3Cc4ccccc4CC3C(F)(F)F)n(C)c2C)c2ccc(O)cc2)cc(C#N)n1C (stereo not drawn) [Example 454, 5-(5-Chloro-2-{[3-(trifluoromethyl)-3,4-dihydroisoquinolin-2(1H)-yl]carbonyl}phenyl)-N-(5-cyano-1,2-dimethyl-1H-pyrrol-3-yl)-N-(4-hydroxyphenyl)-1,2-dimethyl-1H-pyrrole-3-carboxamide] | 158 nM | – | – |
| 1.9 nM | Cc1c(C(=O)N(c2ccc(O)cc2)c2cc(C#N)n(CCN3CCOCC3)c2C)cc(-c2cc(Cl)ccc2C(=O)N2Cc3ccccc3C[C@H]2C)n1C [Example 455, 5-(5-Chloro-2-{[(3R)-3-methyl-3,4-dihydroisoquinolin-2(1H)-yl]-carbonyl}phenyl)-N-{5-cyano-2-methyl-1-[2-(morpholin-4-yl)ethyl]-1H-pyrrol-3-yl}-N-(4-hydroxyphenyl)-1,2-dimethyl-1H-pyrrole-3-carboxamide hydrochloride] | 11.8 nM | – | – |
| 2.7 nM | Cc1c(C(=O)N(c2ccc(O)cc2)c2cnc(OCCN3CCOCC3)nc2)cc(-c2cc(Cl)ccc2C(=O)N2Cc3ccccc3C[C@H]2C)n1C [Example 456, 5-(5-Chloro-2-{[(3R)-3-methyl-3,4-dihydroisoquinolin-2(1H)-yl]-carbonyl}phenyl)-N-(4-hydroxyphenyl)-1,2-dimethyl-N-{2-[2-(morpholin-4-yl)-ethoxy]pyrimidin-5-yl}-1H-pyrrole-3-carboxamide hydrochloride] | 80.6 nM | – | – |
| 10.5 nM | Cc1c(N(C(=O)c2cc(-c3cc(Cl)ccc3C(=O)N3Cc4ccccc4C[C@H]3CN3CCOCC3)n(C)c2C)c2ccc(O)cc2)cn(C)c1C#N [Example 458, 5-(5-Chloro-2-{[(3S)-3-(morpholin-4-ylmethyl)-3,4-dihydroisoquinolin-2(1H)-yl]carbonyl}phenyl)-N-(5-cyano-1,4-dimethyl-1H-pyrrol-3-yl)-N-(4-hydroxyphenyl)-1,2-dimethyl-1H-pyrrole-3-carboxamide hydrochloride] | 197 nM | – | – |
| 2.5 nM | CCn1c(C#N)cc(N(C(=O)c2cc(-c3cc(Cl)ccc3C(=O)N3Cc4ccccc4C[C@H]3CN3CCOCC3)n(C)c2C)c2ccc(O)cc2)c1C [Example 459, 5-(5-Chloro-2-{[(3S)-3-(morpholin-4-ylmethyl)-3,4-dihydroisoquinolin-2(1H)-yl]carbonyl}phenyl)-N-(5-cyano-1-ethyl-2-methyl-1H-pyrrol-3-yl)-N-(4-hydroxyphenyl)-1,2-dimethyl-1H-pyrrole-3-carboxamide hydrochloride] | 5.93 nM | – | – |
| 2.8 nM | Cc1c(C(=O)N(c2ccc(O)cc2)c2cnn(C3CCOC3)c2)cc(-c2cc(Cl)ccc2C(=O)N2Cc3ccccc3C[C@H]2CCCN2CCOCC2)n1C (stereo partly drawn) [Example 460, 5-(5-Chloro-2-{[(3R)-3-[3-(morpholin-4-yl)propyl]-3,4-dihydroisoquinolin-2(1H)-yl]carbonyl}phenyl)-N-(4-hydroxyphenyl)-1,2-dimethyl-N-[1-(tetrahydrofuran-3-yl)-1H-pyrazol-4-yl]-1H-pyrrole-3-carboxamide hydrochloride] | 22.9 nM | – | – |
| 3.1 nM | Cc1c(N(C(=O)c2cc(-c3cc(Cl)ccc3C(=O)N3Cc4ccccc4C[C@H]3CCCN3CCOCC3)n(C)c2C)c2ccccc2)cc(C#N)n1C [Example 461, 5-(5-Chloro-2-{[(3R)-3-[3-(morpholin-4-yl)propyl]-3,4-dihydroisoquinolin-2(1H)-yl]carbonyl}phenyl)-N-(5-cyano-1,2-dimethyl-1H-pyrrol-3-yl)-1,2-dimethyl-N-phenyl-1H-pyrrole-3-carboxamide hydrochloride] | 18.6 nM | – | – |
| 13.3 nM | Cc1cc(N(C(=O)c2cc(-c3cc(Cl)ccc3C(=O)N3Cc4ccccc4C[C@H]3CN3CCOCC3)n(C)c2C)c2ccc(O)cc2)no1 [Example 462, 5-(5-Chloro-2-{[(3S)-3-(morpholin-4-ylmethyl)-3,4-dihydroisoquinolin-2(1H)-yl]carbonyl}phenyl)-N-(4-hydroxyphenyl)-1,2-dimethyl-N-(5-methyl-1,2-oxazol-3-yl)-1H-pyrrole-3-carboxamide] | 368 nM | – | – |
| 36.6 nM | Cc1c(C(=O)N(c2cnc3c(ccn3C)c2)c2ccc(O)cn2)cc(-c2cc(Cl)ccc2C(=O)N2Cc3ccccc3C[C@H]2CN2CCOCC2)n1C [Example 464, 5-(5-Chloro-2-{[(3S)-3-(morpholin-4-ylmethyl)-3,4-dihydroisoquinolin-2(1H)-yl]carbonyl}phenyl)-N-(5-hydroxypyridin-2-yl)-1,2-dimethyl-N-(1-methyl-1H-pyrrolo[2,3-b]pyridin-5-yl)-1H-pyrrole-3-carboxamide dihydrochloride] | 723 nM | – | – |
